{"source": "paper PMC4469479", "about": "(Nature, 2015)", "key": {"dDATmfc sub^B": {"target": "dDATmfc sub^B (Drosophila melanogaster, UniProt Q7K4Y6, D121G/DEL162-202/DEL602-606/INS607VPRG/L415A/S426M/V74A)", "assay_type": "binding"}, "dDATmfc [1]": {"target": "T1, dDATmfc (Drosophila melanogaster, UniProt Q7K4Y6, DEL162-202/DEL602-606/INS607VPRG/L415A/V74A)", "assay_type": "binding"}, "dDATmfc [2]": {"target": "T1, dDATmfc", "settings": "HEK293S cells; 14C-DA 0.3–60 μM; s.e.m."}}, "data": [{"compound": "NCCc1ccc(Cl)c(Cl)c1", "note": "[DCP, 3,4-dichlorophenethylamine]", "values": [{"measurement": "Ki", "setting": "dDATmfc sub^B", "value": "267 ± 20", "unit": "nM"}]}, {"compound": "COC(=O)[C@H]1[C@@H](OC(=O)c2ccccc2)C[C@@H]2CC[C@H]1N2C", "note": "[cocaine]", "values": [{"measurement": "Ki", "setting": "dDATmfc [1]", "value": "33 ± 3", "unit": "µM"}]}, {"compound": "NCCc1ccc(O)c(O)c1", "note": "[dopamine]", "values": [{"measurement": "Vmax of DA transport by dDATmfc", "setting": "dDATmfc [2]", "value": "2.4 ± 0.2", "unit": "pmol/min/10^6 cells"}]}]}
